What was measured:
B16 tumor cells [1] = assay: Cytological test of regulating micro-heterology variation; type: cell-based; conditions: final concentration 1 g/100 ml, incomplete 1640 medium, continued culture more than 48 hours; control cells could not proliferate
Procedure: Conventional incomplete 1640 culture media were used for cell culture, and B16 tumor cells (commericially obtained from the tumor cell library of Shanghai Institute of Cytobiology) were inoculated on said media. After continue culture for more than 48 hours, the micro-heterology variation of cells and the control effects of N-acetyl-D-glucosamine thereon were observed under a condition where metabolic wastes affected the growth environment. […] The control cells cultured without N-acetyl-D-glucosamine could not proliferate on the same culture media under same conditions.

B16 tumor cells [2] = assay: Animal test of regulating micro-heterology variation (B16 tumor cells inoculated on hind legs); type: in vivo, rats; conditions: 7 days, 3 times per day; for control of micro-heterology variation compared with the control group: rats inoculated with B16 tumor cells, intra-peritoneal, 1 ml
Description: In control group without the administration of the compound of formula (1), many proliferative corpuscles appeared in at least 40 among 50 rats within 1-3 days after the tumor cells were inoculated; many immature cells appeared within 3-5 days; and visible solid tumors finally appeared within about 10 days.

[3] = Treatment of a patient with hyperthyroidism; type: in vivo, human; conditions: one patient, capsules 100 mg, 3 times per day, 7 days
Procedure: Patient was administered with capsules of the compound of formula (1) for consecutive 7 days, 3 times per day, and 100 mg every time, during the period of treating diarrhea.

[4] = Treatment of a patient with systemic lupus erythematosus; type: in vivo, human; conditions: one patient, capsules 100 mg, 3 times per day, 7 days
Procedure: Patient who had definite systemic lupus erythematosus, was administered with capsules of the compound of formula (1) for consecutive 7 days, 3 times per day, and 100 mg every time, during the period of hospitalization.

Proteus Mirabilis = assay: Promoting wave test (bio-wave model); type: cell-based; conditions: final concentration 0.5% in LB plate, 37° C., 9 hours, compared with control sample
Description: • 1. […] (+). […] Experimental results and evaluation:

[5] = in vivo
Description: The toxicological test of the compound of formula (I) includes: • 1. Acute toxicity test: including tests of oral administration, intravenous injection administration, and maximum limit amount for administration; • 2. Ames test; • 3. Micronucleus test of mouse bone marrow cell; • 4. Abnormality test of mouse sperm; • 5. Aberration test of mouse testis chromosome; • 6. Chronic lethal test; • 7. Sub-chronic toxicity (feed for 90 days) test; • 8. Traditional deformity-inducing test.

Compound | cell proliferation under a condition where metabolic wastes affected the growth environment (B16 tumor cells [1]) | control of micro-heterology variation compared with the control group (B16 tumor cells [2]) | therapeutical effect on hyperthyroidism (confirmed by T3 and T4 in serum) [3] | patient's symptom [4] | bio-wave pattern of bacterial growth (promoting wave function) (Proteus Mirabilis) | dosage at which the acute toxicosis reaction had not appeared [5] | number of rats in which solid tumor did not appear (B16 tumor cells [2]; 50 rats, 5% aqueous solution intra-peritoneally, 1 ml every time)
CC(=O)N[C@H]1C(O)O[C@H](CO)[C@@H](O)[C@@H]1O.Cl (stereo partly drawn) [N-acetyl-D-glucosamine hydrochloride] | cells could proliferate continuously | exhibited function of controlling micro-heterology variation | – | – | – | – | –
CC(=O)N[C@@H]1[C@@H](O)[C@H](O)[C@@H](CO)O[C@H]1O [compound of formula (I), N-acetyl-D-glucosamine] | cell number stably increased with the culture time | could control the micro-heterology variation | better effect of treating hyperthyroidism | remitted in some extent | finer wave mode | more than 2 g/kg | 45

Reference: US20070160527A1, “Use of n-acetyl-d-aminoglycosamine in treatment of local lesions or systematic symptoms related to autoimmune reactions” (priority 2003, published 2007)
